Source: ChEMBL document CHEMBL2203136, “Synthesis, characterization, biological evaluation and QSAR studies of 11-p-substituted phenyl-12-phenyl-11a,12-dihydro-11H-indeno[2,1-c][1,5]benzothiazepines as potential antimicrobial agents” (Eur J Med Chem, 2012)
≈ marks a conversion by molar mass, not a printed value. Calls of active or inactive are those of the source. The calls are words filed in the database; no cut-off is given here.

What was measured:
Aspergillus fumigatus [1] = assay: Antifungal activity against Aspergillus fumigatus MTCC 2550 after 72 hrs by serial dilution method relative to 11,12-Diphenyl-11a,12-dihydro-11H-indeno[2,1-c][1,5]benzothiazepine; type: functional
Bacillus subtilis [2] = system: Bacillus subtilis
Candida albicans [3] = assay: Antifungal activity against Candida albicans MTCC 183 after 72 hrs by serial dilution method relative to 11,12-Diphenyl-11a,12-dihydro-11H-indeno[2,1-c][1,5]benzothiazepine; type: functional
Staphylococcus aureus [4] = assay: Antibacterial activity against Staphylococcus aureus MTCC 7443 after 24 hrs by serial dilution method relative to 11,12-Diphenyl-11a,12-dihydro-11H-indeno[2,1-c][1,5]benzothiazepine; type: functional
Pseudomonas aeruginosa [5] = assay: Antibacterial activity against Pseudomonas aeruginosa MTCC 7952 after 24 hrs by serial dilution method relative to 11,12-Diphenyl-11a,12-dihydro-11H-indeno[2,1-c][1,5]benzothiazepine; type: functional
Aspergillus fumigatus [6] = assay: Antifungal activity against Aspergillus fumigatus MTCC 2550 after 72 hrs by serial dilution method; type: functional; conditions: for MIC: Aspergillus fumigatus, MTCC 2550, 72 h
Bacillus subtilis [7] = assay: microbe, parasite or virus in culture; conditions: MTCC 441, 24 h
Candida albicans [8] = assay: Antifungal activity against Candida albicans MTCC 183 after 72 hrs by serial dilution method; type: functional; conditions: for MIC: Candida albicans, MTCC 183, 72 h
[9] = Octanol-water partition coefficient, log P of the compound; type: physicochemical
Staphylococcus aureus [10] = assay: Antibacterial activity against Staphylococcus aureus MTCC 7443 after 24 hrs by serial dilution method; type: functional; conditions: for MIC: Staphylococcus aureus, MTCC 7443, 24 h
Bacillus subtilis [11] = assay: Antibacterial activity against Bacillus subtilis MTCC 441 after 24 hrs by serial dilution method relative to 11,12-Diphenyl-11a,12-dihydro-11H-indeno[2,1-c][1,5]benzothiazepine; type: functional
Pseudomonas aeruginosa [12] = assay: Antibacterial activity against Pseudomonas aeruginosa MTCC 7952 after 24 hrs by serial dilution method; type: functional; conditions: for MIC: Pseudomonas aeruginosa, MTCC 7952, 24 h
Escherichia coli [13] = assay: Antibacterial activity against Escherichia coli MTCC 42 after 24 hrs by serial dilution method; type: functional; conditions: for MIC: Escherichia coli, MTCC 42, 24 h
Escherichia coli [14] = assay: Antibacterial activity against Escherichia coli MTCC 42 after 24 hrs by serial dilution method relative to 11,12-Diphenyl-11a,12-dihydro-11H-indeno[2,1-c][1,5]benzothiazepine; type: functional

| SMILES | Activity (Aspergillus fumigatus [1]) | -logMIC (Bacillus subtilis [2]) | Activity (Candida albicans [3]) | Activity (Staphylococcus aureus [4]) | Activity (Pseudomonas aeruginosa [5]) | -logMIC (Aspergillus fumigatus [6]) | MIC (Aspergillus fumigatus [6]) | MIC (Bacillus subtilis [7]) | -logMIC (Candida albicans [8]) | MIC (Candida albicans [8]) | logP [9] | -logMIC (Staphylococcus aureus [10]) | MIC (Staphylococcus aureus [10]) | Activity (Bacillus subtilis [11]) | -logMIC (Pseudomonas aeruginosa [12]) | MIC (Pseudomonas aeruginosa [12]) | -logMIC (Escherichia coli [13]) | MIC (Escherichia coli [13]) | Activity (Escherichia coli [14]) | further results |
| --- | --- | --- | --- | --- | --- | --- | --- | --- | --- | --- | --- | --- | --- | --- | --- | --- | --- | --- | --- | --- |
| Cc1ccc2c(c1)SC(c1ccccc1)C1C(=N2)c2ccccc2C1c1ccccc1 (stereo not given) | 51.73% | 0.92 | 3.39% | -93.37% | 51.69% | 1.22 | 59.8 µM (≈ 25 µg/mL) | 120 µM (≈ 50 µg/mL) | 1.22 | 59.8 µM (≈ 25 µg/mL) | 7.43 | 0.92 | 120 µM (≈ 50 µg/mL) | -93.37% | 1.52 | 29.9 µM (≈ 12.5 µg/mL) | – | – | – | – |
| c1ccc(C2Sc3ccccc3N=C3c4ccccc4C(c4ccccc4)C32)cc1 (stereo not given) | – | 1.21 | – | – | – | 0.91 | 124 µM (≈ 50 µg/mL) | 61.9 µM (≈ 25 µg/mL) | 1.21 | 61.9 µM (≈ 25 µg/mL) | 6.96 | 1.21 | 61.9 µM (≈ 25 µg/mL) | – | 1.21 | 61.9 µM (≈ 25 µg/mL) | 0.91 | 124 µM (≈ 50 µg/mL) | – | – |
| COc1ccc(C2Sc3cc(Cl)ccc3N=C3c4ccccc4C(c4ccccc4)C32)cc1 (stereo not given) | 78.45% | 1.27 | 78.51% | 78.51% | 89.33% | 1.57 | 26.7 µM (≈ 12.5 µg/mL) | 53.4 µM (≈ 25 µg/mL) | 1.88 | 13.3 µM (≈ 6.22 µg/mL) | 7.23 | 1.88 | 13.3 µM (≈ 6.22 µg/mL) | 13.73% | 2.18 | 6.6 µM (≈ 3.09 µg/mL) | 1.57 | 26.7 µM (≈ 12.5 µg/mL) | 78.45% | – |
| COc1ccc(C2Sc3cc(OC)ccc3N=C3c4ccccc4C(c4ccccc4)C32)cc1 (stereo not given) | 89.18% | 1.27 | 78.35% | 89.17% | -74.15% | 1.87 | 13.4 µM (≈ 6.21 µg/mL) | 53.9 µM (≈ 25 µg/mL) | 1.87 | 13.4 µM (≈ 6.21 µg/mL) | 6.46 | 2.17 | 6.7 µM (≈ 3.11 µg/mL) | 12.92% | 0.97 | 108 µM (≈ 50 µg/mL) | 1.57 | 26.9 µM (≈ 12.5 µg/mL) | 78.28% | – |
| Cc1ccc(C2Sc3ccccc3N=C3c4ccccc4C(c4ccccc4)C32)cc1 (stereo not given) | – | 1.22 | – | -93.37% | – | – | – | 59.8 µM (≈ 25 µg/mL) | – | – | 7.43 | 0.92 | 120 µM (≈ 50 µg/mL) | 3.39% | – | – | 0.92 | 120 µM (≈ 50 µg/mL) | 3.38% | Activity (Aspergillus fumigatus [6]): inactive; Activity (Candida albicans [8]): inactive; Activity (Pseudomonas aeruginosa [12]): inactive |
| COc1ccc2c(c1)SC(c1ccc(Cl)cc1)C1C(=N2)c2ccccc2C1c1ccccc1 (stereo not given) | 78.45% | 1.57 | 88.85% | 13.73% | 88.85% | 1.57 | 26.7 µM (≈ 12.5 µg/mL) | 26.7 µM (≈ 12.5 µg/mL) | 2.16 | 6.9 µM (≈ 3.23 µg/mL) | 7.23 | 1.27 | 53.4 µM (≈ 25 µg/mL) | 56.86% | 2.16 | 6.9 µM (≈ 3.23 µg/mL) | 1.57 | 26.7 µM (≈ 12.5 µg/mL) | 78.45% | – |
| COc1ccc(C2Sc3ccccc3N=C3c4ccccc4C(c4ccccc4)C32)cc1 (stereo not given) | 53.51% | 0.94 | -86.26% | – | – | 1.24 | 57.6 µM (≈ 25 µg/mL) | 115 µM (≈ 50 µg/mL) | 0.94 | 115 µM (≈ 50 µg/mL) | 7.95 | – | – | -86.26% | – | – | 0.94 | 115 µM (≈ 50 µg/mL) | 6.94% | Activity (Staphylococcus aureus [10]): inactive; Activity (Pseudomonas aeruginosa [12]): inactive |
| COc1ccc2c(c1)SC(c1ccccc1)C1C(=N2)c2ccccc2C1c1ccccc1 (stereo not given) | 53.51% | 1.24 | -86.26% | 76.73% | 6.94% | 1.24 | 57.6 µM (≈ 25 µg/mL) | 57.6 µM (≈ 25 µg/mL) | 0.94 | 115 µM (≈ 50 µg/mL) | 6.71 | 1.84 | 14.4 µM (≈ 6.24 µg/mL) | 6.94% | 1.24 | 57.6 µM (≈ 25 µg/mL) | 1.54 | 28.8 µM (≈ 12.5 µg/mL) | 76.75% | – |
| Cc1ccc(C2Sc3cc(C)ccc3N=C3c4ccccc4C(c4ccccc4)C32)cc1 (stereo not given) | 6.53% | 1.54 | -87.1% | 53.31% | -87.07% | 0.94 | 116 µM (≈ 50 µg/mL) | 28.9 µM (≈ 12.5 µg/mL) | 0.94 | 116 µM (≈ 50 µg/mL) | 7.9 | 1.54 | 28.9 µM (≈ 12.5 µg/mL) | 53.31% | 0.94 | 116 µM (≈ 50 µg/mL) | 1.24 | 57.9 µM (≈ 25 µg/mL) | 53.26% | – |
| Cc1ccc(C2Sc3cc(Cl)ccc3N=C3c4ccccc4C(c4ccccc4)C32)cc1 (stereo not given) | 77.72% | 1.56 | 55.41% | 88.85% | 55.41% | 1.56 | 27.6 µM (≈ 12.5 µg/mL) | 27.6 µM (≈ 12.5 µg/mL) | 1.56 | 27.6 µM (≈ 12.5 µg/mL) | 7.95 | 2.16 | 6.9 µM (≈ 3.12 µg/mL) | 55.41% | 1.56 | 27.6 µM (≈ 12.5 µg/mL) | 1.86 | 13.8 µM (≈ 6.24 µg/mL) | 88.86% | – |
| Clc1ccc(C2Sc3ccccc3N=C3c4ccccc4C(c4ccccc4)C32)cc1 (stereo not given) | 53.99% | 2.15 | -84.32% | 53.95% | -84.32% | 1.24 | 57 µM (≈ 25 µg/mL) | 7.1 µM (≈ 3.11 µg/mL) | 0.94 | 114 µM (≈ 50 µg/mL) | 7.48 | 1.55 | 28.5 µM (≈ 12.5 µg/mL) | 88.52% | 0.94 | 114 µM (≈ 50 µg/mL) | 1.24 | 57 µM (≈ 25 µg/mL) | 53.99% | – |
| OC(Cn1cncn1)(Cn1cncn1)c1ccc(F)cc1F [FLUCONAZOLE] | – | – | – | – | – | – | 10.1 µM (≈ 3.09 µg/mL) | – | – | 10.1 µM (≈ 3.09 µg/mL) | – | – | – | – | – | – | – | – | – | – |
| CN[C@@H]1[C@H](O[C@H]2[C@H](O[C@H]3[C@H](O)[C@@H](O)[C@H](N=C(N)N)[C@@H](O)[C@@H]3N=C(N)N)O[C@@H](C)[C@]2(O)C=O)O[C@@H](CO)[C@H](O)[C@H]1O [STREPTOMYCIN] | – | – | – | – | – | – | – | 10.7 µM (≈ 6.22 µg/mL) | – | – | – | – | 10.7 µM (≈ 6.22 µg/mL) | – | – | 2.6 µM (≈ 1.51 µg/mL) | – | 5.3 µM (≈ 3.08 µg/mL) | – | – |
| COc1ccc(C2Sc3cc(C)ccc3N=C3c4ccccc4C(c4ccccc4)C32)cc1 (stereo not given) | 9.84% | 1.25 | -80.45% | 54.92% | 9.85% | 0.95 | 112 µM (≈ 50 µg/mL) | 55.8 µM (≈ 25 µg/mL) | 0.95 | 112 µM (≈ 50 µg/mL) | 7.18 | 1.55 | 27.9 µM (≈ 12.5 µg/mL) | 9.85% | 1.25 | 55.8 µM (≈ 25 µg/mL) | 0.95 | 112 µM (≈ 50 µg/mL) | 9.84% | – |
| CC1(C)S[C@@H]2[C@H](NC(=O)Cc3ccccc3)C(=O)N2[C@H]1C(=O)O [PENICILLIN G] | – | – | – | – | – | – | – | 4.6 µM (≈ 1.54 µg/mL) | – | – | – | – | 4.6 µM (≈ 1.54 µg/mL) | – | – | 18.7 µM (≈ 6.25 µg/mL) | – | 37.4 µM (≈ 12.5 µg/mL) | – | – |
| Cc1ccc2c(c1)SC(c1ccc(Cl)cc1)C1C(=N2)c2ccccc2C1c1ccccc1 (stereo not given) | 55.36% | 0.96 | 10.66% | – | 55.41% | 1.26 | 55.3 µM (≈ 25 µg/mL) | 111 µM (≈ 50 µg/mL) | 1.26 | 55.3 µM (≈ 25 µg/mL) | 7.95 | – | – | -78.67% | 1.56 | 27.6 µM (≈ 12.5 µg/mL) | 1.56 | 27.6 µM (≈ 12.5 µg/mL) | 77.72% | Activity (Staphylococcus aureus [10]): inactive |
| COc1ccc2c(c1)SC(c1ccc(C)cc1)C1C(=N2)c2ccccc2C1c1ccccc1 (stereo not given) | 54.96% | 0.95 | 54.92% | 77.54% | 88.85% | 1.25 | 55.8 µM (≈ 25 µg/mL) | 112 µM (≈ 50 µg/mL) | 1.55 | 27.9 µM (≈ 12.5 µg/mL) | 7.18 | 1.86 | 13.9 µM (≈ 6.22 µg/mL) | -80.45% | 2.16 | 6.9 µM (≈ 3.09 µg/mL) | 1.55 | 27.9 µM (≈ 12.5 µg/mL) | 77.48% | – |
